“Also recorded” adds a separate entry of the source. Read-outs that look alike come from different tables or passages of the source.
Columns and labels:
[1] = test system: P. cynomolgi schizont (large forms) and hypnozoite (small forms) liver-stage parasites; assay: P. cynomolgi liver-stage in vitro assay in rhesus monkey hepatocytes; format: cell-based; conditions: Plasmodium cynomolgi, Hepatocyte, in Macaca mulatta
Procedure: (§1) Compound 1 and its metabolites were tested in both prophylactic and radical cure modes for activity against P. vivax liver-stage parasites.[16],[17] In the prophylactic assay, compounds are added the day after sporozoite invasion into hepatocytes in order to characterize the compound activity against established liver forms with a parasitophorous vacuole membrane (as opposed to activity on preinvasion sporozoites) and prior to complete maturation of hypnozoites into drug-insensitive dormant forms, which appear at about 5 days postinvasion.[18] In the radical cure assay, compounds are added at day 5 postinfection to characterize activity against late-stage schizonts and mature PI4K inhibitor-insensitive hypnozoites.[19] In these experiments, the threshold for activity is 75% inhibition. […] Similarly, as previously described,[20] 10 μM concentrations of 1 and its metabolites were also tested for activity against P. cynomolgi schizont (large forms) and hypnozoite (small forms) liver-stage parasites cultured in rhesus monkey hepatocytes. In these experiments, the threshold for activity is 50% inhibition.

[2] = Pharmacokinetics in rats after IV and PO administration; format: in vivo, male Sprague–Dawley rats; conditions: for metabolite in urine, percentage of the 1 dose: after IV administration of 1; for dose excreted: male, Sprague-Dawley, rat, urine, after oral administration of 1 at 27 mg/kg, read-out: recovery of metabolite in urine, percentage of the 1 dose
Procedure: Animal studies were conducted using established procedures in accordance with the Australian Code of Practice for the Care and Use of Animals for Scientific Purposes, and the study protocols were reviewed and approved by the Monash Institute of Pharmaceutical Sciences Animal Ethics Committee. The study was conducted in overnight-fasted male Sprague–Dawley rats weighing 266–292 g. Rats had access to water ad libitum throughout the pre- and postdose sampling period, and access to food was reinstated 4 h postdose. Compound 1 was administered intravenously as a 10 min constant rate infusion via an indwelling jugular vein cannula (1 mL per rat, n = 5 rats) and orally by gavage (10 mL/kg per rat, n = 2–3 rats), and samples of arterial blood and total urine were collected up to 24 h postdose. Arterial blood was collected directly into borosilicate vials (at 4 °C) containing heparin. Blood samples were centrifuged, and the supernatant plasma was removed and stored frozen (−80 °C) until analysis by LC-MS. Plasma samples and calibration standards (prepared in blank rat plasma) were processed by protein precipitation with a 2-fold volume of acetonitrile. LC-MS analysis was conducted using a Waters Micromass Quattro Premier triple-quadrupole mass spectrometer coupled to a Waters Acquity UPLC with a Phenomenex C18 Kinetex column (50 × 2.1 mm, 2.7 μm). Elution was achieved using a methanol–water gradient (containing 8.2 mM formic acid and 1.25 mM ammonium formate) with a flow rate of 0.6 mL/min, a gradient cycle time of 6 min, and an injection volume of 2 μL. MS detection was conducted using positive electrospray ionization with multiple reaction monitoring. Transitions (m/z), cone voltages (V), and CID voltages (V) were as follows: 1, 430.26 > 99.93, 40, 20; 2, 416.27 > 99.80, 30, 20; 3, 402.22 > 99.93, 35, 20; 4, 388.23 > 99.86, 35, 20; 5: 374.25 > 72.01, 35, 25; diazepam (285.25 > […], 40, 25) (used as an internal standard). The quantitation range in plasma was typically 1–10000 ng/mL, and the accuracy and precision were within ±10% and <10%, respectively, for each analyte. Urine samples were analyzed using either a 20- or 200-fold dilution with 50% acetonitrile and assayed against calibration standards prepared in the same solvent.

[3] = Metabolism in rat liver microsomes; format: in vitro ADME; conditions: 0.4 mg/mL protein; for microsomal CLint at 1 μM: rat, liver microsomes, read-out: CLint of authentic metabolite incubated; for microsomal CLint at 1 μM / CLint of authentic metabolite incubated: 1 μM substrate, NADPH, 37 °C, 60 min, single incubation; for average individual metabolite formed over a 60 min incubation of 1: substrate 1 at 1 μM, percentage of initial substrate concentration, ND = not detected
Procedure: (§2) Following the protocols described by Charman et al.,[28]1 was incubated at 37 °C with human, rat, and rhesus monkey liver microsomes. For the determination of intrinsic clearance, the substrate concentration was 1 μM and the protein concentration was 0.4 mg/mL; for qualitative metabolite identification studies, the substrate and protein concentrations were 10 μM and 1 mg/mL, respectively. The reaction was initiated by the addition of an NADPH-regenerating buffer system, and the samples were incubated for up to 60 (for Clint determination) or 180 min (for additional metabolite identification). Samples without the test compound and without NADPH were also incubated and used as controls. The reaction was quenched by protein precipitation with the addition of an equal volume of ice-cold acetonitrile solution (containing diazepam as an internal standard), followed by vortexing and centrifugation for 3 min at 10000 rpm. The supernatant was removed and analyzed by LC/MS. LC/MS analysis was conducted using a Waters Micromass Xevo G2 QTOF MS coupled to a Waters Acquity UPLC. For metabolite identification, a Supelco Ascentis Express Amide column (50 × 2.1 mm, 2.7 μm) was used with an acetonitrile–water gradient (containing 0.05% formic acid), a flow rate of 0.4 mL/min, a gradient cycle time of 6 min, and an injection volume of 5 μL. MS analysis was conducted using positive mode electrospray ionization under MSE acquisition mode, which allows simultaneous acquisition of MS spectra at low and high collision energies. The identity of putative metabolites was confirmed by the accurate mass and a comparison of the retention times and MS/MS fragmentation patterns with authentic metabolites where available. For metabolite quantitation, the method described below for the analysis of plasma samples was used.

[4] = Metabolism in rhesus monkey liver microsomes; format: in vitro ADME; conditions: 0.4 mg/mL protein; for microsomal CLint at 1 μM: rhesus monkey, liver microsomes, read-out: CLint of authentic metabolite incubated; for average individual metabolite formed over a 60 min incubation of 1: substrate 1 at 1 μM, percentage of initial substrate concentration, ND = not detected
Procedure: as §2

[5] = Metabolism in human liver microsomes; format: in vitro ADME; conditions: 0.4 mg/mL protein; for microsomal CLint at 1 μM: human, liver microsomes, read-out: CLint of authentic metabolite incubated; for average individual metabolite formed over a 60 min incubation of 1: substrate 1 at 1 μM, percentage of initial substrate concentration, ND = not detected
Procedure: as §2

[6] = test system: P. vivax liver-stage parasites; assay: P. vivax liver-stage in vitro assay, radical cure mode; format: cell-based, Plasmodium vivax; conditions: Plasmodium vivax
Procedure: as §1
(§3) Compounds were prepared as 20 mM stock solutions in DMSO and tested in an eight-point semilog (1/3) dilution series from 20 μM in 384-well assay plates in both prophylactic and radical cure mode against P. vivax liver-stage parasites as previously described.[16] Following ethical approval from the Institutional Ethics Committee of the Thai Ministry of Public Health, the Ethical Review Committee of Faculty of Tropical Medicine, Mahidol University (TMEC 11-008 and 14-016), the Oxford Tropical Medicine Ethical Committee, Oxford University, England (OxTREC 17-11 and 40–14), and the Cambodian National Ethics Committee for Health Research (101NECHR), isolates of P. vivax infected blood were collected from patent volunteers in Tak province, Thailandm and Mondulkiri province, Cambodia. Samples were collected by venipuncture into heparin tubes prior to replacement of patient serum with nonimmune AB human serum and feeding to laboratory-reared Anopheles dirus cracens or An. dirus A mosquitoes via water-jacket artificial membrane feeders or the Hemotek insect feeding system (Hemotek, Blackburn, UK) set to maintain the bloodmeal temperature at 37 °C. […] Cryopreserved human hepatocytes (BioIVT, Baltimore, Maryland, USA) were thawed into InVitroGro CP Medium (BioIVT), quantified for viability by trypan blue dye exclusion, diluted to 800–1000 live cells per microliter, and 18000 live cells were plated into each well of a collagen-coated 384-well plate (Greiner, Monroe, NC, USA) by a 16-channel pipet (Finnpipette, Thermo Fisher Scientific, Waltham, MA). […]

[7] = test system: P. vivax liver-stage parasites; assay: P. vivax liver-stage in vitro assay, prophylactic mode; format: cell-based, Plasmodium vivax
Procedure: as §1, §3

[8] = 1 μM substrate, NADPH, 37 °C, 60 min, single incubation
[9] = control drug, read-out: IC50 (hypnozoites)
[10] = control drug, read-out: IC50 (schizonts)

Structure (SMILES): COc1cc(NC(C)CCCN)c2ncccc2c1 (centres unmarked) [primaquine]
- IC50 ([1]; read-out: IC50 against the hypnozoite (small forms)): 2700 nM
- IC50 ([1]; read-out: IC50 against the schizont (large forms)): 1100 nM

Structure (SMILES): CCNCCN(CCNCC)c1cc(OC)c(OC)cc1Br [Compound 5, N,N-Bis[2-(ethylamino)ethyl]-2-bromo-4,5-dimethoxyaniline 1,5-naphthalenedisulfonate]
- metabolite in urine, percentage of the 1 dose [2]: 1.2%
- dose excreted [2]: 3%
- microsomal CLint at 1 μM [3]: 4.4 µL/min/mg
- average individual metabolite formed over a 60 min incubation of 1 [3]: 25%
- microsomal CLint at 1 μM [4, 8]: 7.3 µL/min/mg
- average individual metabolite formed over a 60 min incubation of 1 [4]: 1.4%
- microsomal CLint at 1 μM [5, 8]: 6 µL/min/mg

Structure (SMILES): Br.Br.Br.CCN(CC)CCN(CCN(CC)CC)c1cc(O)c(OC)cc1Br [Compound 6, N,N-Bis[2-(diethylamino)ethyl]-2-bromo-5-hydroxy-4-methoxyaniline trihydrobromide]
- CLint of authentic metabolite incubated [3]: very unstable; also recorded: highly unstable in all species
- CLint of authentic metabolite incubated [4, 8]: very unstable; also recorded: highly unstable in all species
- CLint of authentic metabolite incubated [5, 8]: very unstable; also recorded: highly unstable in all species

Structure (SMILES): CCNCCN(CCN(CC)CC)c1cc(OC)c(O)cc1Br [Compound 4, N-[2-(Ethylamino)ethyl]-N-[2-(diethylamino)ethyl]-2-bromo-4-hydroxy-5-methoxyaniline 1,5-Naphthalenedisulfonate]
- inhibition at 10 µM ([1]; 10 μM, first run, read-out: inhibition of growth of the schizont (large forms)): 70%
- IC50 ([6]; n = 2, read-out: IC50 against schizonts): 15500 nM
- microsomal CLint at 1 μM [3]: 45 µL/min/mg
- average individual metabolite formed over a 60 min incubation of 1 [3]: 6.4%
- microsomal CLint at 1 μM [4, 8]: 12 µL/min/mg
- average individual metabolite formed over a 60 min incubation of 1 [4]: 2.4%
- microsomal CLint at 1 μM [5, 8]: < 3 µL/min/mg
- IC50 ([7]; Plasmodium vivax, n = 3, read-out: IC50 against schizonts): 2630 nM

Structure (SMILES): CCNCCN(CCN(CC)CC)c1cc(OC)c(OC)cc1Br [Compound 3, N-[2-(Ethylamino)ethyl]-N-[2-(diethylamino)ethyl]-2-bromo-4,5-dimethoxyaniline 1,5-Naphthalenedisulfonate]
- metabolite in urine, percentage of the 1 dose [2]: 1.7%
- dose excreted [2]: 3.3%
- microsomal CLint at 1 μM [3]: 24 µL/min/mg
- average individual metabolite formed over a 60 min incubation of 1 [3]: 64%
- microsomal CLint at 1 μM [4, 8]: 19 µL/min/mg
- average individual metabolite formed over a 60 min incubation of 1 [4]: 20%
- microsomal CLint at 1 μM [5, 8]: < 3 µL/min/mg
- average individual metabolite formed over a 60 min incubation of 1 [5]: 1.6%

Structure (SMILES): CNC(=O)c1ccc(-c2cnc3cnc(C(=O)N(C)c4ccc(Cl)cc4)cn23)cc1 [KDU691, reference compound]
- IC50 [7, 9]: 53.5 nM
- IC50 [7, 10]: 11.4 nM

Structure (SMILES): CC[C@@]1([C@@H]2O[C@@H]([C@H]3O[C@@](O)(CO)[C@H](C)C[C@@H]3C)C[C@@H]2C)CC[C@H]([C@]2(C)CC[C@]3(C[C@H](O)[C@@H](C)[C@@H]([C@@H](C)[C@@H](OC)[C@H](C)C(=O)O)O3)O2)O1 [monensin, reference compound]
- IC50 [6, 9]: 102 nM
- IC50 [6, 10]: 12.4 nM

Structure (SMILES): CCN(CC)CCN(CCN(CC)CC)c1cc(OC)c(O)cc1Br [Compound 2, N,N-Bis[2-(diethylamino)ethyl]-2-bromo-4-hydroxy-5-methoxyaniline 1,5-Naphthalenedisulfonate]
- CLint of authentic metabolite incubated [3]: highly unstable
- microsomal CLint at 1 μM [3]: 264 µL/min/mg
- microsomal CLint at 1 μM [4, 8]: 8 µL/min/mg
- average individual metabolite formed over a 60 min incubation of 1 [4]: 15%
- microsomal CLint at 1 μM [5, 8]: < 3 µL/min/mg
- average individual metabolite formed over a 60 min incubation of 1 [5]: 0.2%

Source: article PMC9016807, “Metabolic, Pharmacokinetic, and Activity Profile of the Liver Stage Antimalarial (RC-12)” (ACS Omega, 2022)
